Data reported in US8383643B2, “Spiro compounds useful as inhibitors of stearoyl-coenzyme A delta-9 desaturase” (Merck Canada Inc., priority 2009, dated 2013).

Biological target: T1, human SCD1 (Homo sapiens, UniProt O00767)
T1 construct: made in house; host or cells: baculovirus/Sf9
T1 sequence (O00767 1-359): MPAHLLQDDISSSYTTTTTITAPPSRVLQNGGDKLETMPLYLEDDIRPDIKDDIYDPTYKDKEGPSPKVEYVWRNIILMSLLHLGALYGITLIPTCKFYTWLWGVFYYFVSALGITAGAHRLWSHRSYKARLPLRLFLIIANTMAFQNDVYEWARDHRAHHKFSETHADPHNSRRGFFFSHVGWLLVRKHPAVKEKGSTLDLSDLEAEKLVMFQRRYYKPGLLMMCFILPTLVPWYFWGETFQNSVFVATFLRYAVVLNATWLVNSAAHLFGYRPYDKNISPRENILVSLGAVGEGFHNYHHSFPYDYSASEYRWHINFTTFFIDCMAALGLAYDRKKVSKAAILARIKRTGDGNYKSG
Experiment: SCD enzyme activity assay, reconstituted human SCD1 desaturase system ([3H]-stearoyl-CoA conversion)
Format: biochemical
Details: read-out: IC50 hSCD-1
Protocol: The potency of compounds of formula I against the stearoyl-CoA desaturase was determined by measuring the conversion of radiolabeled stearoyl-CoA to oleoyl-CoA using rat liver microsome or human SCD1 following previously published procedures with some modifications (Joshi, et al., J. Lipid Res., 18: 32-36 (1977); Talamo, et al., Anal. Biochem, 29: 300-304 (1969)). Liver microsome was prepared from male Wistar or Sprague Dawley rats on a high carbohydrate diet for 3 days (LabDiet #5803, Purina). The livers were homogenized (1:10 w/v) in a buffer containing 250 mM sucrose, 1 mM EDTA, 5 mM DTT and 50 mM Tris-HCl (pH 7.5). After a 100,000×g centrifugation for […], the liver microsome pellet was suspended in a buffer containing 100 mM sodium phosphate, 20% glycerol, 2 mM DTT, and stored at −78° C. Human SCD1 desaturase system was reconstituted using human SCD1 from a baculovirus/Sf9 expression system, cytochrome B5 and cytochrome B5 reductase. Typically, test compound in 2 μL DMSO was incubated for […] at room temperature with 180 μL of the SCD enzyme in a buffer containing 100 mM Tris-HCl (pH 7.5), ATP (5 mM), Coenzyme-A (0.1 mM), Triton X-100 (0.5 mM) and NADH (2 mM). The reaction was initiated by the addition of 20 μL of [^3H]-stearoyl-CoA (final concentration=2 μM, radioactivity concentration=1 μCi/mL). After 10 min, the reaction mixture (80 μL) was mixed with a calcium chloride/charcoal aqueous suspension (100 μL charcoal (10% w/v) plus 25 μL CaCl2 (2N). After centrifugation to precipitate the radioactive fatty acid species, tritiated water released from 9,10-[^3H]-stearoyl-CoA by the SCD enzyme was quantified on a scintillation counter.

Compound	IC50 [nM]
(5-{2-[4-(2,4-Dichlorophenyl)-1′H-spiro[chromene-2,4′-piperidin]-1′-yl]-1,3-thiazol-5-yl}-2H-tetrazol-2-yl)acetic acid [Example 5]	1.1
(5-{5-[4-(2-Chlorophenyl)-1′H-spiro[chromene-2,4′-piperidin]-1′-yl]-1,3,4-thiadiazol-2-yl}-2H-tetrazol-2-yl)acetic acid [Example 4]	2
2-(5-(2-(4-(4-Fluorophenyl)spiro[chromene-2,4′-piperidine]-1′-yl)thiazol-5-yl)-2H-tetrazol-2-yl)acetic acid [Example 6]	1.3
2-(5-(5-(4-(4-Fluorophenyl)spiro[chromene-2,4′-piperidine]-1′-yl)-1,3,4-thiadiazol-2-yl)-2H-tetrazol-2-yl)acetic acid [Example 7]	0.97
(5-{2-[4-(2-Chlorophenyl)-1′H-spiro[chromene-2,4′-piperidin]-1′-yl]-1,3-thiazol-5-yl}-2H-tetrazol-2-yl)acetic acid [Example 1]	0.92
(5-{5-[4-(2-Chlorophenyl)-1′H-spiro[chromene-2,4′-piperidin]-1′-yl]-1,3,4-thiadiazol-2-yl}-2H-tetrazol-2-yl)acetic acid [Example 2]	0.61
O=C(O)Cn1nnc(-c2cnc(N3CCC4(C=C(c5ccc(OC(F)(F)F)cc5)c5ccccc5O4)CC3)s2)n1 [Example 3, [5-(2-{-4-[4-(Trifluoromethoxy)phenyl]-1′H-spiro[chromene-2,4′-piperidin]-1′-yl}-1,3-thiazol-5-yl)-2H-tetrazol-2-yl]acetic acid]	1.1
